What was measured:
EPR3a ectodomain = target: T1, EPR3a ectodomain (Lotus japonicus, UniProt Z9OTA2OEF3); assay: microscale thermophoresis; format: binding; settings: PBS pH 7.4, 500 mM NaCl, 0.01% Tween20, RT, labelled protein
T1 construct: ectodomain residues 25-223; native signal peptide replaced by AcGP67 signal peptide; non-cleavable C-terminal 6xHis; Sf9 insect cells; PNGase F trimmed and BLUE-NHS labelled for MST
T1 sequence (Z9OTA2OEF3 25-223): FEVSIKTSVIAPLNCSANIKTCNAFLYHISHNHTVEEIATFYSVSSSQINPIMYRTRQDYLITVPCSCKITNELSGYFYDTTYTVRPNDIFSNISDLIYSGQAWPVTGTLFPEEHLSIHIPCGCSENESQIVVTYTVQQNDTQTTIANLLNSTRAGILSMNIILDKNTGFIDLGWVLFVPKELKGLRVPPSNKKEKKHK

[1] = target: T2, EPR3a intracellular kinase domain (Lotus japonicus, UniProt Z9OTA2OEF3); assay: autophosphorylation, SDS-PAGE with Pro-Q Diamond stain; format: biochemical; settings: 20 μM ATP, 10 mM MgCl2, pH 8.0, 1 h
T2 construct: intracellular kinase domain residues 255-615; E. coli Rosetta 2; His10-Arg7-SUMO tag cut by 3C protease; lambda-phosphatase dephosphorylated
T2 sequence (Z9OTA2OEF3 255-615): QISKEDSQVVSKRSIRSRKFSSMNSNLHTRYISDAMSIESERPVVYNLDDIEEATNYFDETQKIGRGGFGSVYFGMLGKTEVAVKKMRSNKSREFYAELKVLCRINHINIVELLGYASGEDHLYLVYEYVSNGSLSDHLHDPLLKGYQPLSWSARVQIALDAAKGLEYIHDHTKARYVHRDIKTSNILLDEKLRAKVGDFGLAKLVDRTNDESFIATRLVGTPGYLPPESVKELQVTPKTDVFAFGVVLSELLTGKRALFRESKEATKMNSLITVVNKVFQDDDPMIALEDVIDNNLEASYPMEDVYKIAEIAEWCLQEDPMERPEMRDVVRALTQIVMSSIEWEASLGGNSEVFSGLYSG

[2] = target: T3, EPR3 intracellular kinase domain (Lotus japonicus, UniProt D3KU53); assay: as above; format: biochemical; settings: 20 μM ATP, 10 mM MgCl2, pH 8.0, 1 h
T3 construct: gene LYS3; intracellular kinase domain residues 259-620; E. coli Rosetta 2; His10-Arg7-SUMO tag cut by 3C protease; lambda-phosphatase dephosphorylated
T3 sequence (D3KU53 entry or part of it): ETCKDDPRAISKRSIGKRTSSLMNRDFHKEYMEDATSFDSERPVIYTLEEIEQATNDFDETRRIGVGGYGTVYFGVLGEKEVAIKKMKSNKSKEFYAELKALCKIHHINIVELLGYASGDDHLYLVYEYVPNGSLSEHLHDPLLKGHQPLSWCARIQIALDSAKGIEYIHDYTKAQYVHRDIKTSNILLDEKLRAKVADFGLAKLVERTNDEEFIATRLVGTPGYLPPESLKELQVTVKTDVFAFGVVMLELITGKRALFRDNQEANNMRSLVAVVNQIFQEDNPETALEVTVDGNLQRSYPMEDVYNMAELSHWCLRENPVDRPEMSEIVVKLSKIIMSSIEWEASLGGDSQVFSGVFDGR

Row | Compound | Kd (EPR3a ectodomain) [µM] | other results
1 | R. leguminosarum EPS | 12.5 ± 4 | –
2 | S. indica β-1,3/β-1,6 decasaccharide | – | Kd (EPR3a ectodomain; first (high-affinity) of two binding events): 51 ± 23 µM
3 | OC[C@H]1O[C@@H](O[C@@H]2[C@@H](O)[C@H](O[C@@H]3[C@@H](O)[C@H](O[C@@H]4[C@@H](O)[C@H](O[C@H]5[C@H](O)[C@@H](CO)OC(O)[C@@H]5O)O[C@H](CO)[C@H]4O)O[C@H](CO)[C@H]3O)O[C@H](CO)[C@H]2O)[C@H](O)[C@@H](O)[C@@H]1O (some centres unmarked) [laminaripentaose] | ~850 | –
4 | Nc1ncnc2c1ncn2[C@@H]1O[C@H](COP(=O)(O)OP(=O)(O)OP(=O)(O)O)[C@@H](O)[C@H]1O [ATP] | – | autophosphorylation, SDS-PAGE with Pro-Q Diamond stain [1]: EPR3a and EPR3 are able to autophosphorylate; autophosphorylation, SDS-PAGE with Pro-Q Diamond stain [2]: EPR3a and EPR3 are able to autophosphorylate
5 | M. loti EPS | 44.4 ± 11.2 | –
6 | OC[C@H]1O[C@@H](O[C@@H]2[C@@H](O)[C@H](O[C@@H]3[C@@H](O)[C@H](O[C@@H]4[C@@H](O)[C@H](O[C@@H]5[C@@H](O)[C@H](O[C@H]6[C@H](O)[C@@H](CO)OC(O)[C@@H]6O)O[C@H](CO)[C@H]5O)O[C@H](CO)[C@H]4O)O[C@H](CO)[C@H]3O)O[C@H](CO)[C@H]2O)[C@H](O)[C@@H](O)[C@@H]1O (some centres unmarked) [laminarihexaose] | ~670 | –
7 | S. meliloti EPS | 937 ± 389 | –
